From PMC5584254, “Identification of novel small molecule Beclin 1 mimetics activating autophagy” (Oncotarget, 2017)
Counter-ions that a name gives are not always drawn. Like-named read-outs stand apart in the source and are kept apart here.

Columns and labels:
Bcl-xL-Beclin 1 complex [1] = target: T1, Bcl-xL-Beclin 1 complex (Homo sapiens, UniProt Q07817); assay: FP-based high-throughput screening, primary screen; assay type: binding; details: first screen; 40 μM compound, 2.5 μM Bcl-xL, 400 nM 20-mer
T1 construct: made in house
T1 sequence (Q07817 whole entry, one chain of several): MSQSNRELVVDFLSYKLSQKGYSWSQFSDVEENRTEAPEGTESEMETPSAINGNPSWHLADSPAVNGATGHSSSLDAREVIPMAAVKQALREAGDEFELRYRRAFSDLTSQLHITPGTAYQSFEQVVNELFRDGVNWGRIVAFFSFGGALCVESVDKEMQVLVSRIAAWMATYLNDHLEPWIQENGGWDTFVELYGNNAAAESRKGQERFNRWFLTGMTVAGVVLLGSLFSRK
Source text: Next, we optimized the FP competitive binding assay in a 384-well microplate format and carried out a small-scale HTS using a small library, which contains 6580 compounds from Prestwick, Microsource and our in-house CMLD library. Then, the FP assay was optimized and applied in screening the larger Chembridge library consisting of 43736 compounds. HTS cascades are shown in Supplementary Figure 1A–1B. […] All chemical structures can be found on the PubChem website (http://pubchem.ncbi.nlm.nih.gov/).
(§1) Then the plates were read by Envision (Perkin Elmer, Waltham, MA). […] The hits were selected from library stocks and reconfirmed in a concentration response FP assay (6 doses ranging from 5 μM to 160 μM or 8 doses ranging from 0.5 μM to 60 μM).

Bcl-xL-Beclin 1 complex [2] = target: T1, Bcl-xL-Beclin 1 complex; assay: Concentration response FP reconfirmation of HTS hits; assay type: binding; details: for inhibition at 5 µM: read-out: Dose-response (% Inhibition) 5 μM; for inhibition at 10 µM: read-out: Dose-response (% Inhibition) 10 μM; for inhibition at 20 µM: read-out: Dose-response (% Inhibition) 20 μM; for inhibition at 40 µM: read-out: Dose-response (% Inhibition) 40 μM; for inhibition at 80 µM: read-out: Dose-response (% Inhibition) 80 μM; for inhibition at 160 µM: read-out: Dose-response (% Inhibition) 160 μM
Method: as §1

| Structure (SMILES) | Primary Screen mP (Bcl-xL-Beclin 1 complex [1]) [mP] | inhibition at 40 µM (Bcl-xL-Beclin 1 complex [1]) [%] | inhibition at 5 µM (Bcl-xL-Beclin 1 complex [2]; 5 μM, hits of first screen) [%] | inhibition at 10 µM (Bcl-xL-Beclin 1 complex [2]; 10 μM, hits of first screen) [%] | inhibition at 20 µM (Bcl-xL-Beclin 1 complex [2]; 20 μM, hits of first screen) [%] | inhibition at 40 µM (Bcl-xL-Beclin 1 complex [2]; 40 μM, hits of first screen) [%] | inhibition at 80 µM (Bcl-xL-Beclin 1 complex [2]; 80 μM, hits of first screen) [%] | inhibition at 160 µM (Bcl-xL-Beclin 1 complex [2]; 160 μM, hits of first screen) [%] | further results |
| --- | --- | --- | --- | --- | --- | --- | --- | --- | --- |
| O=C1C=C2CC3(O)COc4cc(O)ccc4C3=C2C=C1O (centres unmarked) [Compound A01, BRAZILEIN] | 96.0 | 31 | 8 | 16.9 | 23 | 35.7 | 57.8 | 74.8 | – |
| CC(C)=CCCC1(C)C=Cc2c(O)c3c(c(CC=C(C)C)c2O1)OC12C(=CCCC1C(C)(C)O[C@@]2(C/C=C(\C)C(=O)O)C(=O)O)C3=O (some centres unmarked) [Compound A02, GARCINOLIC ACID] | 124.0 | 11.8 | 2.5 | 3.3 | 3.6 | 7.5 | 18.1 | 22 | – |
| O=C1c2cccc(O)c2C(=O)c2c(O)cccc21 [Compound A03, DANTHRON] | 126.4 | 9.62 | -1.2 | 1.4 | 4.8 | 4.9 | 8.7 | 19.7 | – |
| CCCCCc1c2c(cc(O)c1C(=O)O)OC(=O)c1c(cc(OC)cc1C(=O)CCCC)O2 [Compound A04, LOBARIC ACID] | 129.2 | 7.13 | 1.4 | 2.3 | 2 | 3.2 | 10.2 | 13.7 | – |
| C[n+]1cc2c3c(ccc2c2ccc4cc5c(cc4c21)OCO5)OCO3 [Compound A05, SANGUINARINE SULFATE] | 130.6 | 6.61 | – | – | – | – | – | – | inhibition at 5 µM (Bcl-xL-Beclin 1 complex [2]): -1.4%; inhibition at 10 µM (Bcl-xL-Beclin 1 complex [2]): -0.2%; inhibition at 20 µM (Bcl-xL-Beclin 1 complex [2]): 2%; inhibition at 40 µM (Bcl-xL-Beclin 1 complex [2]): 8.4%; inhibition at 80 µM (Bcl-xL-Beclin 1 complex [2]): 20.6%; inhibition at 160 µM (Bcl-xL-Beclin 1 complex [2]): 31.1% |
| CCCCC(CC)CCC(CC(C)C)OS(=O)(=O)O (centres unmarked) [Compound A06, SODIUM TETRADECYL SULFATE] | 121.5 | 9.56 | -7.3 | -3.8 | -1 | 2.6 | 15.4 | 24.4 | – |
| CN(C)c1ccc(C(=C2C=CC(=[N+](C)C)C=C2)c2ccc(N(C)C)cc2)cc1 [Compound A08, GENTIAN VIOLET] | 123.0 | 11.7 | 1.9 | 3.7 | 5.8 | 6.6 | 21.2 | 22.7 | – |
| COC(=O)CC[C@@H](C)[C@H]1CC[C@H]2[C@@H]3[C@H](O)C[C@@H]4C[C@H](O)CC[C@]4(C)[C@H]3C[C@H](O)[C@]12C [Compound A09, CHOLIC ACID, METHYL ESTER] | 127.0 | 9.59 | 1.6 | 1.5 | 1.7 | 4.2 | 9.3 | 13.2 | – |
| COC(=O)Nc1nc2ccc(Sc3ccccc3)cc2[nH]1 [Compound A10, FENBENDAZOLE] | 128.0 | 8.47 | -3.4 | 2.3 | 0.2 | -0.1 | -0.4 | 8.8 | – |
| O=C1c2c(O)ccc(O)c2C(=O)c2c(NCCNCCO)ccc(NCCNCCO)c21 [Compound A11, MITOXANTRONE HYDROCHLORIDE] | 99.8 | 26.3 | -2.2 | 4.3 | 11.2 | 19.5 | 32.9 | 32.2 | – |
| CC[n+]1c(-c2ccccc2)c2cc(N)ccc2c2ccc(N)cc21 [Compound A12, HOMIDIUM BROMIDE] | 113.8 | 15.3 | – | – | – | – | – | – | inhibition at 5 µM (Bcl-xL-Beclin 1 complex [2]): 3.5%; inhibition at 10 µM (Bcl-xL-Beclin 1 complex [2]): 5.5%; inhibition at 20 µM (Bcl-xL-Beclin 1 complex [2]): 7.2%; inhibition at 40 µM (Bcl-xL-Beclin 1 complex [2]): 12%; inhibition at 80 µM (Bcl-xL-Beclin 1 complex [2]): 26.1%; inhibition at 160 µM (Bcl-xL-Beclin 1 complex [2]): 39.2% |
| O=C(O)C1=CC(=C(c2ccc(O)c(C(=O)O)c2)c2ccc(O)c(C(=O)O)c2)C=CC1=O [Compound A14, AURIN TRICARBOXYLIC ACID] | 129.7 | 6.76 | 0.7 | 2 | 3.8 | 4.8 | 8.1 | 8.6 | – |
| CCCc1nc2c(C)cc(-c3nc4ccccc4n3C)cc2n1Cc1ccc(-c2ccccc2C(=O)O)cc1 [Compound A16] | 125.4 | 5.2 | -1.1 | -0.6 | -0.1 | 1.6 | 6.3 | 11.1 | – |
| CCCCCCCCCc1ccc(OCCOCCOCCOCCOCCOCCOCCOCCOCCO)cc1 [Compound A17, NONOXYNOL-9] | 127.2 | 9.04 | – | – | – | – | – | – | inhibition at 5 µM (Bcl-xL-Beclin 1 complex [2]): -0.3%; inhibition at 10 µM (Bcl-xL-Beclin 1 complex [2]): 6.2%; inhibition at 20 µM (Bcl-xL-Beclin 1 complex [2]): 5.9%; inhibition at 40 µM (Bcl-xL-Beclin 1 complex [2]): 5.3%; inhibition at 80 µM (Bcl-xL-Beclin 1 complex [2]): 12.9%; inhibition at 160 µM (Bcl-xL-Beclin 1 complex [2]): 11.1% |
| CN1C[C@H](C(=O)N[C@]2(C)O[C@@]3(O)[C@@H]4CCCN4C(=O)[C@H](Cc4ccccc4)N3C2=O)C=C2c3cccc4[nH]cc(c34)C[C@H]21 [Compound A18, ERGOTAMINE TARTRATE] | 122.3 | 11 | – | – | – | – | – | – | inhibition at 5 µM (Bcl-xL-Beclin 1 complex [2]): -0.2%; inhibition at 10 µM (Bcl-xL-Beclin 1 complex [2]): 0.3%; inhibition at 20 µM (Bcl-xL-Beclin 1 complex [2]): 3.3%; inhibition at 40 µM (Bcl-xL-Beclin 1 complex [2]): 5.8%; inhibition at 80 µM (Bcl-xL-Beclin 1 complex [2]): 15.6%; inhibition at 160 µM (Bcl-xL-Beclin 1 complex [2]): 25.6% |
| CCCCCCCCCCCCCCCCC(C(=O)O)C(O)(CC(=O)O)C(=O)O (centres unmarked) [Compound A19, AGARIC ACID] | 118.2 | – | – | – | – | – | – | – | Primary Screen % Inhibition (Bcl-xL-Beclin 1 complex [1]): 15.85%; Dose-response (% Inhibition) 5 μM (Bcl-xL-Beclin 1 complex [2]; 5 μM, hits of first screen): 3.8%; Dose-response (% Inhibition) 10 μM (Bcl-xL-Beclin 1 complex [2]; 10 μM, hits of first screen): 6.3%; Dose-response (% Inhibition) 20 μM (Bcl-xL-Beclin 1 complex [2]; 20 μM, hits of first screen): 9.1%; Dose-response (% Inhibition) 40 μM (Bcl-xL-Beclin 1 complex [2]; 40 μM, hits of first screen): 12.7%; Dose-response (% Inhibition) 80 μM (Bcl-xL-Beclin 1 complex [2]; 80 μM, hits of first screen): 20.3%; Dose-response (% Inhibition) 160 μM (Bcl-xL-Beclin 1 complex [2]; 160 μM, hits of first screen): 20.9% |
| CCc1oc2ccccc2c1C(=O)c1cc(Br)c(O)c(Br)c1 [Compound A20, BENZBROMARONE] | 125.0 | 9.05 | 0.2 | 0.6 | 1 | 1.1 | 6.1 | 11.3 | – |
| OCCN(CCO)c1nc(N2CCCCC2)c2nc(N(CCO)CCO)nc(N3CCCCC3)c2n1 [Compound A22, DIPYRIDAMOLE] | 72.7 | 47.8 | 10.1 | 21 | 35.1 | 46.7 | 62.9 | 72.4 | – |
| CC[C@@]1(O)C(=O)OCc2c1cc1n(c2=O)Cc2cc3c(CN(C)C)c(O)ccc3nc2-1 [Compound A23, TOPOTECAN HYDROCHLORIDE] | 43.8 | 68.7 | 39.8 | 54.8 | 64.7 | 70.9 | 102 | 103 | – |
